Test results reported in publication PMC11050816, “Pharmacokinetics and Safety of Lurbinectedin Administrated with Itraconazole in Cancer Patients: A Drug–Drug Interaction Study” (Marine Drugs, 2024).

Assays:
[1] = Plasma pharmacokinetics of lurbinectedin metabolites M1 and M4 (metabolite/parent ratio) with and without itraconazole
Protocol: The study consisted of two parts. In Part A, three patients were sequentially enrolled to receive Sequence 1 (TR: Test–Reference) consisting of itraconazole (200 mg […]; once-daily for 12 days) co-administered with lurbinectedin (0.8 mg/m^2, 1 h, IV infusion q3wk) (Cycle 1), followed by two consecutive cycles (Cycles 2 and 3) of lurbinectedin alone (3.2 mg/m^2, 1 h, IV infusion q3wk), with the third cycle being optional. In Part B, patients were randomized (in a ratio 1:1, using sequence a block randomization implemented with Medidata Rave Randomization and Trial Supply Management [RTSM]) to receive either Sequence 1 (TR: Test–Reference), but with lurbinectedin 0.9 mg/m^2, 1 h, IV when co-administered with itraconazole, or Sequence 2 (RT: Reference–Test) of lurbinectedin alone (Cycle 1), followed by itraconazole and lurbinectedin co-administration (Cycle 2), with lurbinectedin alone (optional Cycle 3) (see Figure 2 above).
The itraconazole dose (200 mg) was selected based on the published literature for the design of clinical drug–drug interaction studies with itraconazole. In the co-administration cycles, itraconazole was administered as 200 mg (2 × 100 mg capsules) once-daily doses in the morning after breakfast for 12 consecutive days, self-administered at home starting from […] (i.e., four days before lurbinectedin infusion) to Day 8 (i.e., seven days after lurbinectedin infusion), following recommendations from the Summary of Product Characteristics. On Day 1 (day of lurbinectedin infusion), itraconazole was given immediately prior to the start of the lurbinectedin infusion. In fact, itraconazole had to be administered after collecting the first itraconazole PK sample and before the start of lurbinectedin infusion (−15 min to −1 min). In case of lurbinectedin delay (≤2 days), itraconazole could be administered for a maximum of 14 days (Figure 6). In Sequence 1 (TR), itraconazole for self-administration and the patient’s diary were given to the patient on Day −5 with a −2/+1 daytime window (i.e., from Day −7 to Day −4). In Sequence 2 (RT), itraconazole and the patient’s diary were given to the patient on Day −5 of Cycle 2 with a −2/+1 daytime window (i.e., from Day 15 of Cycle 1 to Day −4 of Cycle 2).
The impact of itraconazole on the lurbinectedin PK profile compared with that of lurbinectedin alone was evaluated using the primary study PK endpoints: Cmax and AUC0–∞ of total plasma lurbinectedin. Other secondary PK endpoints included AUC0–t, total plasma CL, t1/2, and the volume of distribution at steady state (Vss). The following unbound parameters were also estimated: AUCu,0–∞, AUCu,0–t, Cu,max, CLu, Vss,u, and t1/2,u. Plasma PK parameters were calculated with a standard non–compartmental analysis approach using Phoenix® WinNonlin® v6.4 (Certara USA, Inc., Princeton, NJ, USA).
Serial peripheral venous blood samples for the lurbinectedin PK analysis (and its metabolites M1 and M4) were collected in Cycle 1 and Cycle 2 (Sequences 1 and 2), with a schedule of thirteen samples in all patients as follows: at pre-dose, 5 min prior to the end of the lurbinectedin infusion, and at 0.5, 1, 2, 4, 6, 24, 48, 96, 168, 241, and 337 h post-dose on Days 1, 2, 3, 5, 8, 11, and 15. Only in Part B (Sequence 2) was a blood sampling test at 505 h post-lurbinectedin dosing to be collected before the lurbinectedin infusion started on Day 1 of Cycle 3, if detectable lurbinectedin concentrations were present in the pre-infusion sample in Cycle 2 of Part A. Blood samples for the PK analysis of itraconazole (and its active metabolite, hydroxy-itraconazole) were collected in cycles with itraconazole co-administration (i.e., Cycle 1 of Part A and B [Sequence 1] and Cycle 2 of Part B [Sequence 2]) at pre-dose and at 1, 2, 4, 24, and 168 h post-itraconazole dosing on Days 1, 2, and 8.

[2] = cited from earlier work
[3] = co-administration with itraconazole compared with lurbinectedin alone
[4] = lurbinectedin + itraconazole divided by lurbinectedin alone
[5] = treatment LRB alone (R), dose-normalized, n = 8

| Molecule | Reduction of the conversion of lurbinectedin to the metabolite [1, 3] [%] | Metabolite/parent ratio (MPR) of AUC0–t, geometric mean (CV%) ([1]; human, in vivo) | Metabolite/parent ratio (MPR) of Cmax, geometric mean (CV%) ([1]; human, in vivo) | MPR of AUC0–t, least-squares geometric mean ratio [1, 4] [%] | MPR of Cmax, least-squares geometric mean ratio [1, 4] [%] | Metabolite/parent ratio (MPR) of AUC0–t, geometric mean (CV%) [1, 5] | Metabolite/parent ratio (MPR) of Cmax, geometric mean (CV%) [1, 5] | Conversion of lurbinectedin to the metabolite [1, 3] | Mild and transient liver enzymes elevations, patients ([2]; chronic dosing) [%] | Risk of QTc prolongation in the electrocardiogram ([2]; especially at ≤200 mg once a day, in vitro data and clinical experience) |
| --- | --- | --- | --- | --- | --- | --- | --- | --- | --- | --- |
| COc1ccc2[nH]c3c(c2c1)CCN[C@]31CS[C@@H]2c3c(OC(C)=O)c(C)c4c(c3[C@H](COC1=O)N1[C@@H]2[C@@H]2N[C@@H](Cc3cc(C)c(OC)c(O)c32)[C@@H]1O)OCO4 [M4, N–desmethyl–lurbinectedin] | 69 | 1.29 (209.58) µg·h/L/mg | 0.61 (47.57) µg/L/mg | 31.53 | 92.47 | 1.45 (135.58) µg·h/L/mg | 0.49 (60.3) µg/L/mg |  |  |  |
| 1′,3′–dihydroxy–lurbinectedin [M1] |  | 0.74 (NA) µg·h/L/mg | 0.38 (NA) µg/L/mg |  |  | 0.48 (360.01) µg·h/L/mg | 0.29 (135.88) µg/L/mg | almost completely inhibited |  |  |
| CCC(C)n1ncn(-c2ccc(N3CCN(c4ccc(OCC5COC(Cn6cncn6)(c6ccc(Cl)cc6Cl)O5)cc4)CC3)cc2)c1=O (centres unmarked) [itraconazole] |  |  |  |  |  |  |  |  | < 5 | low |
